In patent US11518765B2, “Substituted pyrimidine derivatives useful in the treatment of autoimmune diseases” (THE PROVOST, FELLOWS, FOUNDATION SCHOLARS, AND THE OTHER …, priority 2015, dated 2022):

Legend:
Type in all cases: in vivo, mice (C57BL/6)
[1] = body weight of EAE diseased mice; settings: treated EAE animals, FIG. 2
Method: (§1) To assess the potential of these compounds in vivo, a chronic monophasic EAE disease in mice was induced before treatment with the new chemical entity (NCE). EAE Disease was induced in 8-10 week old female mice (C57BL/6) by subcutaneous (s.c.) injection of 200 μl emulsion containing 150 μg […] peptide (Genscript) in Complete Freund's Adjuvant (CFA; containing 5 mg/ml heat-inactivated Mycobacterium tuberculosis). On the same day, mice were administered 500 ng Pertussis Toxin (Kaketsuken, Japan) intraperitoneally (i.p.) and again two days later. Disease severity was recorded every 24 hours: 0-Normal; 1-flaccid tail; 2-imparied/wobbly gait; 3-complete hind limb weakness; 4-hind limb and forelimb paralysis; 5-moribund state/dead. Protocol is based on the Nature Protocols for Active induction of experimental allergic encephalomyelitis, which includes the scoring methodology: • Stromnes I M, Goverman J M (2006) Active induction of experimental allergic encephalomyelitis. Nat Protoc. 1(4):1810-9.
(§2) This contrasts with the sustained drop in body weight of non-treated EAE diseased animals to a level 86.4% that of controls at 21 dpi (17.8 grams versus 20.6 grams). Motor coordination and hind-limb strength were also evaluated by the ability of mice to cross a horizontal bar (FIG. 3). Non-diseased animals crossed the bar with an average time of 4.3±0.57 seconds.

[2] = system: chronic monophasic EAE disease in mice; test: chronic monophasic EAE disease in mice, EAE score (disease severity); settings: FIG. 1
Method: as §1
The EAE score relates to an assessment of disease progression with respect to issues like tail paralysis and limb paralysis, a higher score is a worse condition. A score of 1 indicates decreased tail tone, a score of 2 indicates hind leg weakness (paraparesis), a score of 3 indicates hind limb paralysis and/or incontinence. Note that the untreated animals have a continuous and progressive worsening of disease.

[3] = system: chronic monophasic EAE disease in mice; test: motor coordination and hind-limb strength: ability of EAE mice to cross a horizontal bar; settings: EAE diseased mice, within 4 treatments; FIG. 3
Method: as §1, §2

Cl.Nc1nc2[nH]cc(CNCCCc3ccccc3)c2c(=O)[nH]1 [Compound I, N-((2-amino-4-oxo-4,7-dihydro-3H-pyrrolo[2,3-d]pyrimidin-5-yl)methyl)-3-phenylpropan-1-aminium chloride]
body weight ([1]; 21 dpi, controls 20.6 grams): 19.9 grams | body weight level relative to controls ([1]; 21 days post inoculation (dpi)): 96.6% | EAE scoring after treatment ([2]; 30 mg/kg, i.p., after 4 daily treatments): disease free | time to reversal of symptoms (EAE score) ([2]; highest dosage given, 30 mg/kg, i.p.): ≤ 24 h | disease progression (EAE score) ([2]; lower doses, animals slower to respond): halted and reversed | performance crossing a horizontal bar [3]: fully restored the performance of EAE diseased mice to control levels
